Measurements as given in US20100048728A1, “POLYCYCLIC DIANTHRAQUINONES AS INHIBITORS OF INFLAMMATORY CYTOKINES” (HY BIOPHARMA INC., priority 2006, published 2010).

What was measured:
[1] = tested on: acute IBD generated in BALB/C mice by DSS; experiment: DSS-induced acute inflammatory bowel disease (IBD) in mice, colon length; assay type: in vivo
Protocol: 36 male BABL/c mice anesthetized with Ketamine & Xylazine, are divided into six groups: • Control • Dextran sulfate sodium salt (DSS) alone −8000 MW • DSS with Hypericin 25 μg/animal • DSS with Hypericin 75 μg/animal • Hypericin 25 μg/animal • Hypericin 75 μg/animal
Acute IBD was generated in BALB/C mice (6 mice per group) by DSS administered via the drinking water (3.5% w/v) for 7 days. Hypericin was administered to these animals intraperitoneally at doses of 25 and 75 μg/mouse beginning 48 hrs prior to initiation of DSS administration and at 48 hr intervals thereafter. After 16 days the mice were sacrificed with high dose of sodium pentobarbital, the gastro-intestinal tract removed, its overall length measured and evaluated compared to control untreated healthy mice.

Mouse L cells [2] = experiment: Protection from TNFα-induced cell death, MTT assay; assay type: cell-based
Protocol: Mouse L cells (ATCC) were cultured in complete MEM medium in 37° C. incubator with 5% CO2 and 95% humidity. The culture cells were divided to […]: i. untreated control ii. Hypericin 0.5 μg/ml iii. Hypericin 1 μg/ml iv. TNFα10 u/ml v. TNFα25 u/ml vi. TNFα10 u/ml and Hypericin 0.5 μg/ml vii. TNFα10 u/ml and Hypericin 1 μg/ml viii. TNFα 25 u/ml and Hypericin 0.5 μg/ml ix. TNFα25 u/ml and Hypericin 1 μg/ml.
Hypericin was applied to the cells 48 hr prior to TNFα administration. The experiment was terminated 24 hrs after TNF administration and cell viability evaluated by MTT assay.

Mouse L cells [3] = experiment: Protection from TNFα-induced cell death, Hemacolor assay; assay type: cell-based
Protocol: Mouse L cells (ATCC) were cultured in complete MEM medium in 37° C. incubator with 5% CO2 and 95% humidity. The culture cells were divided to 6 separate groups: i. untreated control ii. TNFα25 u/ml iii. TNFα25 u/ml and Hypericin 0.5 μg/ml iv. TNFα25 u/ml and Hypericin 1 μg/ml v. TNFα25 u/ml and Hypericin 5 μg/ml vi. TNFα 25 u/ml and Hypericin 7.5 μg/ml.
Hypericin was applied to the cells 48 hr prior to TNFα administration. The experiment was terminated 24 hrs after TNF administration and cell viability evaluated using the Hemacolor assay.

[4] = tested on: Herpes simplex type 1 virus induced skin inflammation; experiment: Inflammatory skin reactions induced by Herpes simplex type 1 virus in guinea pig dorsa; details: topical 1.2 or 1.7 μg Hypericin/gr Vaseline, 3× per day for 3 days, evaluated after 96 hrs

Compound: Cc1cc(O)c2c(=O)c3c(O)cc(O)c4c5c(O)cc(O)c6c(=O)c7c(O)cc(C)c8c1c2c(c34)c(c78)c65 [Hypericin, hypericin]
- colon length ([1]; Hypericin 25 μg/mouse without DSS): did not alter the colon length
- colon length ([1]; Hypericin 75 μg/mouse intraperitoneally with 3.5% DSS, after 16 days, DSS alone 8.016 cm, control 12.6 cm, P≦0.039 vs DSS alone): 9.067 cm
- colon length ([1]; Hypericin 75 μg/mouse without DSS): did not alter the colon length
- prevention of TNFα induced cell death (MTT) (Mouse L cells [2]; Hypericin 0.5 μg/ml 48 hr before TNFα 10 u/ml, P≦0.025758): prevented cell death significantly
- prevention of TNFα induced cell death (MTT) (Mouse L cells [2]; Hypericin 0.5 μg/ml 48 hr before TNFα 25 u/ml, P≦0.023446): prevented cell death significantly
- prevention of TNFα induced cell death (MTT) (Mouse L cells [2]; Hypericin 1 μg/ml 48 hr before TNFα 10 u/ml, P≦0.014777): prevented cell death significantly
- prevention of TNFα induced cell death (MTT) (Mouse L cells [2]; Hypericin 1 μg/ml 48 hr before TNFα 25 u/ml, P≦0.047198): prevented cell death significantly
- cell viability (MTT) (Mouse L cells [2]; Hypericin alone, compared to the control group): did not alter cell viability
- prevention of TNFα induced cell death (Hemacolor) (Mouse L cells [3]; Hypericin 0.5 μg/ml 48 hr before TNFα 25 u/ml, P≦0.0045): prevented cell death significantly
- prevention of TNFα induced cell death (Hemacolor) (Mouse L cells [3]; Hypericin 1 μg/ml 48 hr before TNFα 25 u/ml, P≦0.00049): prevented cell death significantly
- prevention of TNFα induced cell death (Hemacolor) (Mouse L cells [3]; Hypericin 5 μg/ml 48 hr before TNFα 25 u/ml, P≦0.00105): prevented cell death significantly
- prevention of TNFα induced cell death (Hemacolor) (Mouse L cells [3]; Hypericin 7.5 μg/ml 48 hr before TNFα 25 u/ml, P≦0.00159): prevented cell death significantly
- prevention of TNFα induced cell death (Hemacolor) (Mouse L cells [3]; Hypericin 15 μg/ml before TNFα 25 u/ml): did not prevent cell death
- inflammatory erythema following infection with herpes virus [4]: significantly inhibited
